Some results are limits rather than exact numbers.

Type in all cases: functional, cell-based
The test system of one assay is BGC-823. Nature of the assay: Antiproliferative activity against human BGC-823 cells assessed as inhibition of cell growth measured after 48 hrs by MTT assay. Particulars: BGC-823, 48 h.
In another assay the test system is MCF7. Nature of the assay: Antiproliferative activity against human MCF7 cells assessed as inhibition of cell growth measured after 48 hrs by MTT assay. Particulars: MCF7, 48 h. For orientation: Tetrazolium assays rely on reduction of a dye to a coloured formazan, in cell work by metabolically active cells.
For another assay, the system named is A-375. The assay is described as follows: Antiproliferative activity against human A-375 cells assessed as inhibition of cell growth measured after 48 hrs by MTT assay. Particulars: A-375, 48 h.
The test system of the next assay is 786-0. Nature of the assay: Antiproliferative activity against human 786-0 cells assessed as inhibition of cell growth measured after 48 hrs by MTT assay. The note with it: 786-0, 48 h.
The subject of another assay is HT-29. The assay is described as follows: Antiproliferative activity against human HT-29 cells assessed as inhibition of cell growth measured after 48 hrs by MTT assay. The note with it: HT-29, 48 h.
The nature of assay [1]: Antiproliferative activity against human BIU-87 cells assessed as inhibition of cell growth measured after 48 hrs by MTT assay. The note with it: BIU87, 48 h.
Another assay deals with KB. Nature of the assay: Antiproliferative activity against human KB cells assessed as inhibition of cell growth measured after 48 hrs by MTT assay.
The subject of a further assay is CWR22R. The assay is described as follows: Antiproliferative activity against human 22Rv1 cells assessed as inhibition of cell growth measured after 48 hrs by MTT assay. The note with it: 22Rv1, 48 h.
The next assay relates to SK-OV-3. Nature of the assay: Antiproliferative activity against human SK-OV-3 cells assessed as inhibition of cell growth measured after 48 hrs by MTT assay. The note with it: SK-OV-3, 48 h.
A further assay relates to ECa-109 cell line. Nature of the assay: Antiproliferative activity against human Eca-109 cells assessed as inhibition of cell growth measured after 48 hrs by MTT assay. The note with it: ECa-109, 48 h.

For `CN1CCN(Cc2cc3c([nH]c4ccccc43)c(CN3CCN(C)CC3)n2)CC1`, the IC50 (usually the concentration needed to halve the response being measured) in the assay on BGC-823 was above 100 µM; with MCF7, above 100 µM; in the assay on A-375 it was above 100 µM; in the assay on 786-0, 28.4 µM; in the assay on HT-29, 83.3 µM; in assay [1], above 100 µM. For the same compound, the IC50 in the assay on KB, in the assay on CWR22R, with SK-OV-3 and in the assay on ECa-109 cell line was above 100 µM throughout.

As for `CN1CCN(Cc2cc3c4ccccc4n(Cc4cccc(Cl)c4)c3c(CN3CCN(C)CC3)n2)CC1`, the IC50 with BGC-823 was determined as 36.8 µM; with MCF7 it was 15.8 µM; in the assay with A-375, 12 µM; with 786-0, 3.21 µM; with HT-29, 5.68 µM; in assay [1] it was 8.01 µM. Besides, the IC50 in the assay on KB was determined as 15.6 µM; in the assay with CWR22R, 4.93 µM; in the assay with SK-OV-3 it was 4.62 µM; with ECa-109 cell line it was 11.3 µM.

On to `CN1CCN(Cc2cc3c4ccccc4n(Cc4ccccc4)c3c(CN3CCN(C)CC3)n2)CC1`, for which the IC50 with BGC-823 was found to be 58.3 µM; in the assay with MCF7, 27.5 µM; in the assay on A-375, 13.6 µM; with 786-0 it was 2.36 µM; in the assay with HT-29, 6.42 µM; in assay [1], 15.5 µM. Further, the half-inhibitory concentration (IC50) worked out at 24.2 µM in the assay with KB, 6.47 µM in the assay on CWR22R, 15.6 µM in the assay with SK-OV-3 and 16.8 µM in the assay with ECa-109 cell line.

In the case of `CCCCn1c2ccccc2c2cc(CN3CCN(C)CC3)nc(CN3CCN(C)CC3)c21`, the IC50 in the assay on BGC-823 amounted to 98.5 µM; with MCF7, 50.2 µM; in the assay on A-375 it was 17.2 µM; with 786-0, 2.32 µM; with HT-29 it was 11 µM; in [1], 23.9 µM. Further, the IC50 with KB is 34.8 µM; in the assay on CWR22R, 4.63 µM; in the assay on SK-OV-3 it was 27.3 µM; in the assay with ECa-109 cell line, 25.6 µM.

Take `CN1CCN(Cc2cc3c4ccccc4n(Cc4ccc(F)cc4)c3c(CN3CCN(C)CC3)n2)CC1`: the IC50 stood at 48.7 µM with BGC-823; 36.4 µM in the assay on MCF7; 16.8 µM in the assay with A-375; 2.68 µM in the assay with 786-0; 5.98 µM in the assay on HT-29; 16.9 µM in [1]. Also, the IC50 with KB came out at 28.6 µM; in the assay on CWR22R, 5.62 µM; in the assay on SK-OV-3, 8.72 µM; in the assay with ECa-109 cell line, 9.87 µM.

As for `CN1CCN(Cc2cc3c4ccccc4n(C)c3c(CN3CCN(C)CC3)n2)CC1`, the IC50 was above 100 µM with BGC-823; above 100 µM in the assay on MCF7; 85.9 µM in the assay on A-375; 13.4 µM with 786-0; 46.8 µM with HT-29; above 100 µM in assay [1]. The IC50 with KB was above 100 µM; in the assay with CWR22R, above 100 µM; in the assay on SK-OV-3, 93.5 µM; in the assay with ECa-109 cell line, above 100 µM.
